Experimental data as given in patent US5712139A, “Pyranose oxidase, pyranose oxidase gene, novel recombinant DNA and process for producing pyranose oxidase” (Kikkoman Corporation, priority 1994, dated 1998).

These compounds were tested against T1, pyranose oxidase (Trametes versicolor, UniProt P79076) (assay: Substrate specificity of pyranose oxidase (hydrogen peroxide / 4-aminoantipyrine-phenol-peroxidase colour reaction)). Conditions: pH 7.
T1 construct: purified, about 290 kDa by gel filtration; mature N-terminus […] in fungal enzyme; pPRME18 is the alternative N-terminally shortened construct
Type: biochemical, Coriolus versicolor
Experimental: 3.0 ml of an enzyme-containing solution consisting of 1.0 ml of 0.1M Tris-HC1 buffer, pH 7.0, 0.2 ml of a color-producing solution (prepared by adding 2000 U peroxidase to 100 ml of 0.1 M Tris-HCl buffer, pH 7.0 containing 10 mM 4-aminoantipyrine and 10 mM phenol), 0.1 ml of 1M glucose, 0.1 ml pyranose oxidase solution and 1.6 ml water was allowed to react at 37° C., and the increase in absorbance at 500 nm was determined with U2000 double beam spectrophotometer (manufactured by Hitachi, Ltd.).
One unit of enzyme activity is defined as the amount of enzyme which causes formation of 1 μmol of hydrogen peroxide per minute at 37° C., pH 7.0. The calculation of […] was carried out using the following equation assuming that the molecular extinction coefficient of the quinoimine pigment formed under the above conditions is 5.3 x 10^3 : Enzyme activity: (ΔA500 /5.3)×(3.0/0.1)×dilution degree of enzyme.
For examination of the substrate specificity of the present enzyme, each of sugar solutions (0.1 M) shown in Table 1 was used in place of glucose in the method described in (1) above. 2.5 units of pyranose oxidase were added to the reaction solution. The activity for each substrate is shown in relative activity that is expressed relative to that (100%) for the substrate glucose.

| Compound | relative activity (%) |
| --- | --- |
| galactose | 3.2 |
| mannose | 0.2 |

Same assay, conditions: pH 7, read-out: relative activity (%)

| Compound | activity at 3300 µM [%] |
| --- | --- |
| O=C(CO)[C@@H](O)[C@H](O)[C@@H](O)CO [L-sorbose] | 9 |

Same assay, conditions: substrate 3.3 mM; relative to glucose = 100%; 2.5 units of pyranose oxidase; 37° C., pH 7.0

| Compound | relative activity (%) |
| --- | --- |
| OC[C@H]1O[C@H](O[C@H]2O[C@H](CO)[C@@H](O)[C@H](O)[C@H]2O)[C@H](O)[C@@H](O)[C@@H]1O [trehalose] | 0.1 |
| O=C(O)[C@H](O)[C@@H](O)[C@H](O)[C@H](O)CO [gluconic acid] | 0.4 |
| OC[C@H]1O[C@H](O[C@H]2[C@H](O)[C@@H](O)[C@H](O)O[C@@H]2CO)[C@H](O)[C@@H](O)[C@@H]1O [maltose] | 1.1 |

Same assay, conditions: substrate 3.3 mM; relative to glucose = 100%; 2.5 units of pyranose oxidase; 37° C., pH 7.0; read-out: relative activity (%)

| Compound | activity at 3300 µM [%] |
| --- | --- |
| OC[C@H]1O[C@@](CO)(O[C@H]2O[C@H](CO)[C@@H](O)[C@H](O)[C@H]2O)[C@@H](O)[C@@H]1O [sucrose] | 0 |
| OC[C@H]1O[C@H](OC[C@H]2O[C@H](O[C@]3(CO)O[C@H](CO)[C@@H](O)[C@@H]3O)[C@H](O)[C@@H](O)[C@@H]2O)[C@H](O)[C@@H](O)[C@H]1O [raffinose] | 0 |
| OC[C@H]1OC(O)C[C@@H](O)[C@@H]1O (stereo partly drawn) [2-deoxy-D-glycose] | 1.6 |
| OC[C@@H](O)[C@@H](O)[C@H](O)[C@@H](O)CO [D-sorbitol] | 0 |
| OC[C@@H](O)[C@H](O)[C@@H](O)CO [xylitol] | 0 |
| OC1OC[C@@H](O)[C@H](O)[C@H]1O (stereo partly drawn) [D-xylose] | 6.5 |
| CC(=O)N[C@H]1C(O)O[C@H](CO)[C@@H](O)[C@@H]1O (stereo partly drawn) [N-acetyl-D-glucosamine] | 0 |
| OC[C@H]1OC[C@H](O)[C@@H](O)[C@@H]1O [1,5-anhydro-D-glucitol] | 14.2 |
| C[C@@H]1OC(O)[C@H](O)[C@H](O)[C@H]1O (stereo partly drawn) [L-rhamnose] | 0.1 |
| O=C1O[C@H](CO)[C@@H](O)[C@H](O)[C@H]1O [D-gluconic acidδ lactone] | 0.4 |

Same assay, conditions: summary of Table 1

| Compound | substrate specificity in words |
| --- | --- |
| galactose | acts on |
| OC1OC[C@@H](O)[C@H](O)[C@H]1O (stereo partly drawn) [D-xylose] | acts on |
| OC[C@H]1OC[C@H](O)[C@@H](O)[C@@H]1O [1,5-anhydro-D-glucitol] | acts on |
